From patent US20170037028A1 (BAYER PHARMA AKTIENGESELLSCHAFT, priority 2013, published 2017)

biological target: T1, GLUT1 (Homo sapiens, UniProt P11166); assay: Indirect measurement of GLUT1 activity by quantification of intracellular ATP levels (glucose induced ATP increase); assay type: cell-based; parameters: endogenous in cells; host or cells: DLD1 or CHO-K1; conditions: DLD1 cells; 0.1 mM glucose, 1 μM Rotenone, 15 min; CellTiter-Glo ATP readout; IC50 values standardized to cytochalasin B IC50 values; read-out: IC50 regarding glucose induced ATP increase (GLUT1 inhibition)
T1 sequence (P11166 1-492): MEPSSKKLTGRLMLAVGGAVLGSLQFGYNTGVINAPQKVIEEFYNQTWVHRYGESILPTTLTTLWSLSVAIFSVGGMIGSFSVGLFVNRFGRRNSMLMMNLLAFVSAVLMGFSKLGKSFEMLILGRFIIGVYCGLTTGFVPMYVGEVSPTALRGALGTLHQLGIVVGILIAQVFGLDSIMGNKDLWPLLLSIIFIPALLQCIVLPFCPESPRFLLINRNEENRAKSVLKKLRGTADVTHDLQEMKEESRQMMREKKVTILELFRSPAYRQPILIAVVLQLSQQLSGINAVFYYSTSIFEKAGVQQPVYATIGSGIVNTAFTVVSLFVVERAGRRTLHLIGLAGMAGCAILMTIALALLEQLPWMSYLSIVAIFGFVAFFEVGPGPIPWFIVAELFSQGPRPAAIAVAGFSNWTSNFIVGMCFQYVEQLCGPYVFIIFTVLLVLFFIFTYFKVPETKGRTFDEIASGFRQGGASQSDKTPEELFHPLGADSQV
Summary of the method: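 DLD1 or CHO-K1 cells were starved overnight in glucose-free medium with 1% FCS, then combined with an oxidative phosphorylation inhibitor. GLUT1 activity was read as glucose-induced ATP increase, GLUT2 as fructose-induced. Intracellular ATP was quantified by CellTiter-Glo luminescence.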

Row | Compound | IC50 [nM]
1 | Cc1c(NC(=O)c2cc(C(N)=O)nc3cc(F)ccc23)c(C(F)(F)F)nn1Cc1ccc(C#N)nc1 [Example 290, N^4-{1-[(6-cyanopyridin-3-yl)methyl]-5-methyl-3-(trifluoromethyl)-1H-pyrazol-4-yl}-7-fluoroquinoline-2,4-dicarboxamide] | 31.7

same assay, conditions: read-out: IC50 regarding glucose induced ATP increase (GLUT1 inhibition)

Row | Compound | IC50 [nM]
2 | Cc1nn(Cc2ccncc2C#N)c(C)c1NC(=O)c1cc(C(N)=O)nc2ccccc12 [Example 286, N^4-{1-[(3-cyanopyridin-4-yl)methyl]-3,5-dimethyl-1H-pyrazol-4-yl}quinoline-2,4-dicarboxamide] | 35.6
3 | Cc1c(NC(=O)c2cc(C(N)=O)nc3ccccc23)c(C(F)(F)F)nn1Cc1ccncc1C#N [Example 288, N^4-{1-[(3-cyanopyridin-4-yl)methyl]-5-methyl-3-(trifluoromethyl)-1H-pyrazol-4-yl}quinoline-2,4-dicarboxamide] | 40.1
4 | Cc1c(NC(=O)c2cc(C(N)=O)nc3ccccc23)c(C(F)(F)F)nn1Cc1ccc(C#N)nc1 [Example 289, N^4-{1-[(6-cyanopyridin-3-yl)methyl]-5-methyl-3-(trifluoromethyl)-1H-pyrazol-4-yl}quinoline-2,4-dicarboxamide] | 21.5
5 | Cc1c(NC(=O)c2cc(C(N)=O)nc3cccc(F)c23)c(C(F)(F)F)nn1Cc1ccc(C#N)nc1 [Example 291, N^4-{1-[(6-cyanopyridin-3-yl)methyl]-5-methyl-3-(trifluoromethyl)-1H-pyrazol-4-yl}-5-fluoroquinoline-2,4-dicarboxamide] | 6.9
6 | Cc1nn(Cc2ccc(C#N)nc2)c(C)c1NC(=O)c1cc(C(N)=O)nc2cc(F)ccc12 [Example 292, N^4-{1-[(6-cyanopyridin-3-yl)methyl]-3,5-dimethyl-1H-pyrazol-4-yl}-7-fluoroquinoline-2,4-dicarboxamide] | 17
7 | Cc1nn(Cc2ccc(C#N)nc2)c(C)c1NC(=O)c1cc(C(N)=O)nc2ccc(Br)cc12 [Example 293, 6-bromo-N^4-{1-[(6-cyanopyridin-3-yl)methyl]-3,5-dimethyl-1H-pyrazol-4-yl}quinoline-2,4-dicarboxamide] | 1
8 | Cc1nn(CCOc2ccc(C#N)cc2)c(C)c1NC(=O)c1cc(C(N)=O)nc2cc(F)c(Cl)cc12 [Example 294, 6-chloro-N^4-{1-[2-(4-cyanophenoxy)ethyl]-3,5-dimethyl-1H-pyrazol-4-yl}-7-fluoroquinoline-2,4-dicarboxamide] | 6.6
9 | Cc1nn(CCOc2ccc(C#N)cc2)c(C)c1NC(=O)c1cc(C(N)=O)nc2ccccc12 [Example 295, N^4-{1-[2-(4-cyanophenoxy)ethyl]-3,5-dimethyl-1H-pyrazol-4-yl}quinoline-2,4-dicarboxamide] | 1020
10 | Cc1nn(Cc2ccc(C#N)cc2F)c(C)c1NC(=O)c1cc(C(N)=O)nc2ccccc12 [Example 297, N^4-[1-(4-cyano-2-fluorobenzyl)-3,5-dimethyl-1H-pyrazol-4-yl]quinoline-2,4-dicarboxamide] | 0.8
11 | Cc1nn(Cc2ccc(C#N)cc2F)c(C)c1NC(=O)c1cc(C(N)=O)nc2cccc(F)c12 [Example 301, N^4-[1-(4-cyano-2-fluorobenzyl)-3,5-dimethyl-1H-pyrazol-4-yl]-5-fluoroquinoline-2,4-dicarboxamide] | 0.5
12 | Cc1c(NC(=O)c2cc(C(N)=O)nc3cc(F)c(Cl)cc23)c(C#N)nn1Cc1ccc(F)cc1 [Example 307, 6-chloro-N^4-[3-cyano-1-(4-fluorobenzyl)-5-methyl-1H-pyrazol-4-yl]-7-fluoroquinoline-2,4-dicarboxamide] | 5.1
13 | Cc1c(NC(=O)c2cc(C(N)=O)nc3ccccc23)c(C#N)nn1Cc1ccc(F)cc1 [Example 308, N^4-[3-cyano-1-(4-fluorobenzyl)-5-methyl-1H-pyrazol-4-yl]quinoline-2,4-dicarboxamide] | 2.7
14 | CCc1nn(Cc2ccc(C#N)cc2)c(CC)c1NC(=O)c1cc(C(F)(F)F)nc2ccc(Br)cc12 [Example 309, 6-bromo-N-[1-(4-cyanobenzyl)-3,5-diethyl-1H-pyrazol-4-yl]-2-(trifluoromethyl)quinoline-4-carboxamide] | 363
15 | CCc1nn(Cc2ccc(C#N)cc2)c(CC)c1NC(=O)c1cc(C(N)=O)nc2ccccc12 [Example 310, N^4-[1-(4-cyanobenzyl)-3,5-diethyl-1H-pyrazol-4-yl]quinoline-2,4-dicarboxamide] | 47.2
16 | CCc1nn(Cc2ccc(C#N)cc2)c(CC)c1NC(=O)c1cc(C(N)=O)nc2cc(F)c(Cl)cc12 [Example 311, 6-chloro-N^4-[1-(4-cyanobenzyl)-3,5-diethyl-1H-pyrazol-4-yl]-7-fluoroquinoline-2,4-dicarboxamide] | 6
17 | CCc1nn(Cc2ccc(C#N)cc2)c(CC)c1NC(=O)c1cc(C(N)=O)nc2cc(F)ccc12 [Example 312, N^4-[1-(4-cyanobenzyl)-3,5-diethyl-1H-pyrazol-4-yl]-7-fluoroquinoline-2,4-dicarboxamide] | 35.5
18 | CCc1nn(Cc2ccc(C#N)cc2)c(CC)c1NC(=O)c1cc(C(N)=O)nc2cc(Cl)ccc12 [Example 313, 7-chloro-N^4-[1-(4-cyanobenzyl)-3,5-diethyl-1H-pyrazol-4-yl]quinoline-2,4-dicarboxamide] | 185
19 | CCc1c(NC(=O)c2cc(C(N)=O)nc3cc(F)c(Cl)cc23)c(C(F)(F)F)nn1Cc1ccc(C#N)cc1 [Example 314, 6-chloro-N^4-[1-(4-cyanobenzyl)-5-ethyl-3-(trifluoromethyl)-1H-pyrazol-4-yl]-7-fluoroquinoline-2,4-dicarboxamide] | 1.6
20 | CCc1c(NC(=O)c2cc(C(N)=O)nc3cc(F)ccc23)c(C(F)(F)F)nn1Cc1ccc(C#N)cc1 [Example 315, N^4-[1-(4-cyanobenzyl)-5-ethyl-3-(trifluoromethyl)-1H-pyrazol-4-yl]-7-fluoroquinoline-2,4-dicarboxamide] | 16

Now from value to molecule:

Row | IC50 [nM] | Compound
21 | 4.8 | Cc1c(NC(=O)c2cc(C(N)=O)nc3cc(F)c(Cl)cc23)c(C(F)(F)F)nn1Cc1ccncc1C#N [Example 287, 6-chloro-N^4-{1-[(3-cyanopyridin-4-yl)methyl]-5-methyl-3-(trifluoromethyl)-1H-pyrazol-4-yl}-7-fluoroquinoline-2,4-dicarboxamide]
22 | 0.6 | Cc1nn(Cc2ccc(C#N)cc2F)c(C)c1NC(=O)c1cc(C(N)=O)nc2cc(F)c(Cl)cc12 [Example 296, 6-chloro-N^4-[1-(4-cyano-2-fluorobenzyl)-3,5-dimethyl-1H-pyrazol-4-yl]-7-fluoroquinoline-2,4-dicarboxamide]
23 | 1 | Cc1nn(Cc2ccc(C#N)cc2F)c(C)c1NC(=O)c1cc(C(N)=O)nc2cc(F)c(F)cc12 [Example 298, N^4-[1-(4-cyano-2-fluorobenzyl)-3,5-dimethyl-1H-pyrazol-4-yl]-6,7-difluoroquinoline-2,4-dicarboxamide]
24 | 6.8 | Cc1nn(Cc2ccc(C#N)cc2F)c(C)c1NC(=O)c1cc(C(N)=O)nc2ccc(Br)cc12 [Example 299, 6-bromo-N^4-[1-(4-cyano-2-fluorobenzyl)-3,5-dimethyl-1H-pyrazol-4-yl]quinoline-2,4-dicarboxamide]
25 | 0.5 | Cc1nn(Cc2ccc(C#N)cc2F)c(C)c1NC(=O)c1cc(C(N)=O)nc2cc(F)ccc12 [Example 300, N^4-[1-(4-cyano-2-fluorobenzyl)-3,5-dimethyl-1H-pyrazol-4-yl]-7-fluoroquinoline-2,4-dicarboxamide]
26 | 1.1 | Cc1c(NC(=O)c2cc(C(N)=O)nc3ccccc23)c(C(F)(F)F)nn1Cc1ccc(C#N)cc1F [Example 302, N^4-[1-(4-cyano-2-fluorobenzyl)-5-methyl-3-(trifluoromethyl)-1H-pyrazol-4-yl]quinoline-2,4-dicarboxamide]
27 | 1.8 | Cc1c(NC(=O)c2cc(C(N)=O)nc3cc(F)c(Cl)cc23)c(C(F)(F)F)nn1Cc1ccc(C#N)cc1F [Example 303, 6-chloro-N^4-[1-(4-cyano-2-fluorobenzyl)-5-methyl-3-(trifluoromethyl)-1H-pyrazol-4-yl]-7-fluoroquinoline-2,4-dicarboxamide]
28 | 3.6 | Cc1c(NC(=O)c2cc(C(N)=O)nc3cc(F)c(F)cc23)c(C(F)(F)F)nn1Cc1ccc(C#N)cc1F [Example 304, N^4-[1-(4-cyano-2-fluorobenzyl)-5-methyl-3-(trifluoromethyl)-1H-pyrazol-4-yl]-6,7-difluoroquinoline-2,4-dicarboxamide]
29 | 1.4 | Cc1c(NC(=O)c2cc(C(N)=O)nc3ccc(Br)cc23)c(C(F)(F)F)nn1Cc1ccc(C#N)cc1F [Example 305, 6-bromo-N^4-[1-(4-cyano-2-fluorobenzyl)-5-methyl-3-(trifluoromethyl)-1H-pyrazol-4-yl]quinoline-2,4-dicarboxamide]
30 | 4.7 | Cc1c(NC(=O)c2cc(C(N)=O)nc3cccc(F)c23)c(C(F)(F)F)nn1Cc1ccc(C#N)cc1F [Example 306, N^4-[1-(4-cyano-2-fluorobenzyl)-5-methyl-3-(trifluoromethyl)-1H-pyrazol-4-yl]-5-fluoroquinoline-2,4-dicarboxamide]
